Experimental findings from patent US20260265238A1, “COMPOUNDS AND PHARMACEUTICAL COMPOSITIONS THAT DEGRADE SWI/SNF-RELATED MATRIX-ASSOCIATED ACTIN-DEPENDENT REGULATOR OF CHROMATIN SUBFAMILY A” (Plexium, Inc., priority 2023, published 2026) are described below.

Some results are limits rather than exact numbers.

In assay [1] the target is T1, SMARCA4-HiBiT HeLa cells (protein which is expressed from the SMARCA4 gene) (Homo sapiens, UniProt P51532).
T1 construct: protein which is expressed from the SMARCA2 and SMARCA4 genes; host or cells: HeLa (SMARCA4-HiBiT engineered line)
The experiment in a line: SMARCA4 degradation assay (HiBiT-fusion HeLa cell line, 24 h, luminescence). It is filed as cell-based. In outline:
(§1)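 HeLa cells carrying HiBiT-tagged SMARCA2 or SMARCA4 were seeded at 8,000 cells/well, allowed to attach overnight at 37° C., then given compounds in a 10-point dilution series (typically 10 μM to 300 pM) for 24 hours at 37° C. Remaining tagged protein was read by HiBiT lytic luminescence, and DC50s came from dose-response curves.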

In assay [2] the target is T2, SMARCA2-HiBiT HeLa cells (protein which is expressed from the SMARCA2 gene) (Homo sapiens, UniProt P51531).
T2 construct: protein which is expressed from the SMARCA2 and SMARCA4 genes; host or cells: HeLa (SMARCA2-HiBiT engineered line)
The experiment in a line: SMARCA2 degradation assay (HiBiT-fusion HeLa cell line, 24 h, luminescence). It counts as cell-based. The essentials: as §1

T1 sequence (P51532 whole entry): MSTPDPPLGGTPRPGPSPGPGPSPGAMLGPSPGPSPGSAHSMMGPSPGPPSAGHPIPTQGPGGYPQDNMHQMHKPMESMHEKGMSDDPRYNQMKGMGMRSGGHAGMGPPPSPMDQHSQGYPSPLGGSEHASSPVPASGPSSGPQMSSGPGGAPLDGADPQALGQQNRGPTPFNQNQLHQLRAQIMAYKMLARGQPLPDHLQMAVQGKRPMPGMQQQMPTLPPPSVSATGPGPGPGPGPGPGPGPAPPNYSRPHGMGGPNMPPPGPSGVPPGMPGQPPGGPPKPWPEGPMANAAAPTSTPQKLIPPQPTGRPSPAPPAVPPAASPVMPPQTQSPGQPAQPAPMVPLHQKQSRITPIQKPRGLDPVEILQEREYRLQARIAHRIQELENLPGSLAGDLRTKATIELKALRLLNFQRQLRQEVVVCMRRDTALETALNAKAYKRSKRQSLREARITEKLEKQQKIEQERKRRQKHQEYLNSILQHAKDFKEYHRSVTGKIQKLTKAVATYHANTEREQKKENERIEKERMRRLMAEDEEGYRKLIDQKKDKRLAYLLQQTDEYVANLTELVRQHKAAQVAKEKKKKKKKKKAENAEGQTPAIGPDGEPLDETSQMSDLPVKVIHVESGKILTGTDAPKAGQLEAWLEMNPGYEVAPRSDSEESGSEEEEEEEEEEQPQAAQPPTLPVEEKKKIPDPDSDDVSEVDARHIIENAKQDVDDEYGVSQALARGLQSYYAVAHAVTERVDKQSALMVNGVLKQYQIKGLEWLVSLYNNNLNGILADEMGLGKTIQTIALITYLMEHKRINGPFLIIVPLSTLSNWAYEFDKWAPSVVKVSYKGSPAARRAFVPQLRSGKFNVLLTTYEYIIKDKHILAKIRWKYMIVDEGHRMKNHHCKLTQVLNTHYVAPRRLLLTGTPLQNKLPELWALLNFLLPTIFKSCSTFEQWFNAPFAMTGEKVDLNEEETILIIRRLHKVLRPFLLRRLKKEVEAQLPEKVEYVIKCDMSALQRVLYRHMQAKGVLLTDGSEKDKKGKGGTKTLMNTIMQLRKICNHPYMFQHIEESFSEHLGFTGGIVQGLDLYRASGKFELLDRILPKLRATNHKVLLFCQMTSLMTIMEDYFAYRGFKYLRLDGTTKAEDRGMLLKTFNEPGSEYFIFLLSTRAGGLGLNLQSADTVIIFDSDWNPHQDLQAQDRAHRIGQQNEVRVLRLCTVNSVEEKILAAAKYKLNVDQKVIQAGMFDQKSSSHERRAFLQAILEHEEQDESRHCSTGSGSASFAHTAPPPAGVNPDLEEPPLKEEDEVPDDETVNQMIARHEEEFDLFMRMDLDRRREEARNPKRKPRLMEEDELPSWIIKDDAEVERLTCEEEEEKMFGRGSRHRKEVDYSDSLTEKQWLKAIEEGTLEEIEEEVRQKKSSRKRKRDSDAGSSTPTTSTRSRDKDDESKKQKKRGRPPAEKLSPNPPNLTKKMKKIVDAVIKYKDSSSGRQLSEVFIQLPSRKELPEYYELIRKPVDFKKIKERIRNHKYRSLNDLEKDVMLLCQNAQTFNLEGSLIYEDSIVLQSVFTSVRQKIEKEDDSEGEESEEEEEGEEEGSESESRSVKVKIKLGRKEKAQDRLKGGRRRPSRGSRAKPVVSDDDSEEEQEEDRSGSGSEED
T2 sequence (P51531 whole entry): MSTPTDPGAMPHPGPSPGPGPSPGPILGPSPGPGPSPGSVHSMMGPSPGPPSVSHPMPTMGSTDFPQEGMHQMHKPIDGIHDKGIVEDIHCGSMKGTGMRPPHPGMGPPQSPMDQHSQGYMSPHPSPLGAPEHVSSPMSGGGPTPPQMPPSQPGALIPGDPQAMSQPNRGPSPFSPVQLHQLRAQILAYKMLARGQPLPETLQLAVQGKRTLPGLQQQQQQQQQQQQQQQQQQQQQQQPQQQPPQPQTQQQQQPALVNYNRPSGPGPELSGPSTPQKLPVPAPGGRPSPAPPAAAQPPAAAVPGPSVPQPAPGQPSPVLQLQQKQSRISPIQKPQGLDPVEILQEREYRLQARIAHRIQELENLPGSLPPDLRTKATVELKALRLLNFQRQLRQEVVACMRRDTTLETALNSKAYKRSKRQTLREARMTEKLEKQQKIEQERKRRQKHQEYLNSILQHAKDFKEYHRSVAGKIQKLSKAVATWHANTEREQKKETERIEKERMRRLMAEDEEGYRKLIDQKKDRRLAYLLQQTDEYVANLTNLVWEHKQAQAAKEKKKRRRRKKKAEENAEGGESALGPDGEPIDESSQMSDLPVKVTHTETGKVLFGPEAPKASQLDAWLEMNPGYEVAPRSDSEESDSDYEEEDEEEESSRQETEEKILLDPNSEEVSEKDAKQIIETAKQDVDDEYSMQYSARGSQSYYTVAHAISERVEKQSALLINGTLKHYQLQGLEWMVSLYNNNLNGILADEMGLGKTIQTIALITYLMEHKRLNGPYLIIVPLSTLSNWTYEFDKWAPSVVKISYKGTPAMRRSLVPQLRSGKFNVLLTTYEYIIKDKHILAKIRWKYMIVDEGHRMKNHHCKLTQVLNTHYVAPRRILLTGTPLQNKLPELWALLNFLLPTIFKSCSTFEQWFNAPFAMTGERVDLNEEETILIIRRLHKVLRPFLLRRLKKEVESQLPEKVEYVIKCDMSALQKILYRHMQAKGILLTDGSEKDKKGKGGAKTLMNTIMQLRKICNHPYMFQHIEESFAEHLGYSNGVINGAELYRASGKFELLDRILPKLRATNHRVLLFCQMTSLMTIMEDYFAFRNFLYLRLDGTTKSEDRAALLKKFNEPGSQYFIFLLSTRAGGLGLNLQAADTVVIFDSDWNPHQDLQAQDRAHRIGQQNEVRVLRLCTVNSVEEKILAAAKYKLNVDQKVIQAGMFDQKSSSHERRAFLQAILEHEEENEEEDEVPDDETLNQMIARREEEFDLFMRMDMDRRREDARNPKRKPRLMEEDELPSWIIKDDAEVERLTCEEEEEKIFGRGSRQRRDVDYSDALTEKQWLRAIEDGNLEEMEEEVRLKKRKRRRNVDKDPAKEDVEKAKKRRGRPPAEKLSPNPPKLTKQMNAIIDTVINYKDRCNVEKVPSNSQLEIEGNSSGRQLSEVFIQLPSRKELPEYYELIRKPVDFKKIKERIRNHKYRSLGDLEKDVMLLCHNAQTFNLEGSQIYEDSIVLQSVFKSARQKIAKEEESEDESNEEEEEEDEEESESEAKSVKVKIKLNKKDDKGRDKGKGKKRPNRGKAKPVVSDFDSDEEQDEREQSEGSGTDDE

In assay [1], `CCOc1cc(N2CCCN(c3cc(-c4ccccc4O)nnc3N)CC2)nc(C#CCNC(=O)c2cc3ncccn3n2)n1` [Compound P-124, N-(3-(4-(4-(3-amino-6-(2-hydroxyphenyl)pyridazin-4-yl)-1,4-diazepan-1-yl)-6-ethoxypyrimidin-2-yl)prop-2-yn-1-yl)pyrazolo[1,5-a]pyrimidine-2-carboxamide] showed a DC50 of 0.05 to 0.5 µM and an inhibition at 1 µM greater than 70%. Besides, in assay [2], the 50% degradation concentration (DC50) lay within 0.05 to 0.5 µM and the “SMARCA2 % Degradation @ 1 μM” value was “++ (++=30-70%)”.

`Nc1nnc(-c2ccccc2O)cc1N1CCCN(c2ccnc(C#CCO)n2)CC1` [Compound P-125, 2-(6-amino-5-(4-(2-(3-hydroxyprop-1-yn-1-yl)pyrimidin-4-yl)-1,4-diazepan-1-yl)pyridazin-3-yl)phenol]: in assay [1], the DC50 lay in the range of 0.05 to 0.5 µM and the inhibition at 1 µM is 30 to 70%. Moreover, in assay [2], the DC50 lay within 0.05 to 0.5 µM and the “SMARCA2 % Degradation @ 1 μM” value was “++ (++=30-70%)”.

In assay [1], `COCc1cc(N2CCCN(c3cc(-c4ccccc4O)nnc3N)CC2)nc(C#CCNC(=O)c2nn(C)c(C)c2C)n1` [Compound P-126, N-(3-(4-(4-(3-amino-6-(2-hydroxyphenyl)pyridazin-4-yl)-1,4-diazepan-1-yl)-6-(methoxymethyl)pyrimidin-2-yl)prop-2-yn-1-yl)-1,4,5-trimethyl-1H-pyrazole-3-carboxamide] showed a DC50 of 0.05 to 0.5 µM and an inhibition at 1 µM of 30 to 70%. Besides, in assay [2], the DC50 is 0.05 to 0.5 µM and the “SMARCA2 % Degradation @ 1 μM” value was “++ (++=30-70%)”.

In assay [1], `COCc1cc(N2CCCN(c3cc(-c4ccccc4O)nnc3N)CC2)nc(C#CCNC(=O)c2cc3ncccn3n2)n1` [Compound P-127, N-(3-(4-(4-(3-amino-6-(2-hydroxyphenyl)pyridazin-4-yl)-1,4-diazcpan-1-yl)-6-(methoxymethyl)pyrimidin-2-yl)prop-2-yn-1-yl)pyrazolo[1,5-a]pyrimidine-2-carboxamide] displayed a half-maximal degradation concentration (DC50) of 0.05 to 0.5 µM and an inhibition at 1 µM greater than 70%. Moreover, in assay [2], the half-maximal degradation concentration (DC50) was 0.05 to 0.5 µM and the “SMARCA2 % Degradation @ 1 μM” value is “++ (++=30-70%)”.

`Nc1nnc(-c2ccccc2O)cc1N1CCCN(c2ccnc(C#CCOc3ncco3)n2)CC1` [Compound P-128, 2-(6-amino-5-(4-(2-(3-(oxazol-2-yloxy)prop-1-yn-1-yl)pyrimidin-4-yl)-1,4-diazepan-1-yl)pyridazin-3-yl)phenol]: in assay [1], the DC50 fell in the range of 0.05 to 0.5 µM and the inhibition at 1 µM is 30 to 70%. Also, in assay [2], the DC50 is less than 0.05 µM and the “SMARCA2 % Degradation @ 1 μM” value is reported as “+++ (+++=>70%)”.

As to `Nc1nnc(-c2ccccc2O)cc1N1CCC2(CCCN(c3ccnc(C#CCNC(=O)c4cc5n(n4)CCC5)n3)C2)CC1` [Compound P-129, N-(3-(4-(9-(3-amino-6-(2-hydroxyphenyl)pyridazin-4-yl)-2,9-diazaspiro[5.5]undecan-2-yl)pyrimidin-2-yl)prop-2-yn-1-yl)-5,6-dihydro-4H-pyrrolo[1,2-b]pyrazole-2-carboxamide], in assay [1], the DC50 was in the range of 0.05 to 0.5 µM and the inhibition at 1 µM fell in the range of 30 to 70%. Moreover, in assay [2], the DC50 is 0.05 to 0.5 µM and the “SMARCA2 % Degradation @ 1 μM” value was “++ (++=30-70%)”.

As for `Cn1ccc(NCC#Cc2nccc(N3CC4CCC(C3)N4c3cc(-c4ccccc4O)nnc3N)n2)n1` [Compound P-130, 2-(6-amino-5-(3-(2-(3-((1-methyl-1H-pyrazol-3-yl)amino)prop-1-yn-1-yl)pyrimidin-4-yl)-3,8-diazabicyclo[3.2.1]octan-8-yl)pyridazin-3-yl)phenol], in assay [1], the DC50 lay in the range of 0.05 to 0.5 µM and the inhibition at 1 µM lay within 30 to 70%. Further, in assay [2], the 50% degradation concentration (DC50) lay within 0.05 to 0.5 µM and the “SMARCA2 % Degradation @ 1 μM” value was “+++ (+++=>70%)”.

In assay [1], `Cn1nccc1OCC#Cc1nccc(N2CCCN(c3cc(-c4ccccc4O)nnc3N)CC2)n1` [Compound P-131, 2-(6-amino-5-(4-(2-(3-((1-methyl-1H-pyrazol-5-yl)oxy)prop-1-yn-1-yl)pyrimidin-4-yl)-1,4-diazepan-1-yl)pyridazin-3-yl)phenol] gave a DC50 of 0.05 to 0.5 µM and an inhibition at 1 µM of 30 to 70%. Further, in assay [2], the DC50 was 0.05 to 0.5 µM and the “SMARCA2 % Degradation @ 1 μM” value is “++ (++=30-70%)”.

In assay [1], `Nc1nnc(-c2ccccc2O)cc1N1CC2CCC(C1)N2c1ccnc(C#CCn2nnc3ccccc32)n1` [Compound P-132, 2-(5-(8-(2-(3-(1H-benzo[d][1,2,3]triazol-1-yl)prop-1-yn-1-yl)pyrimidin-4-yl)-3,8-diazabicyclo| 3.2.1 |octan-3-yl)-6-aminopyridazin-3-yl)phenol] showed a DC50 of 0.5 to 5 µM and an inhibition at 1 µM of 30 to 70%. Also, in assay [2], the DC50 fell in the range of 0.5 to 5 µM and the “SMARCA2 % Degradation @ 1 μM” value is on record as “++ (++=30-70%)”.

Consider `Nc1nnc(-c2ccccc2O)cc1N1CC2CCC(C1)N2c1ccnc(C#CCn2cccn2)n1` [Compound P-133, 2-(5-(8-(2-(3-(1H-pyrazol-1-yl)prop-1-yn-1-yl)pyrimidin-4-yl)-3,8-diazabicyclo[3.2.1]octan-3-yl)-6-aminopyridazin-3-yl)phenol], for which, in assay [1], the DC50 fell in the range of 0.05 to 0.5 µM and the inhibition at 1 µM is 30 to 70%. Moreover, in assay [2], the DC50 was 0.05 to 0.5 µM and the “SMARCA2 % Degradation @ 1 μM” value is reported as “++ (++=30-70%)”.

For `CN(C)CC#Cc1nccc(N2C3CCC2CN(c2cc(-c4ccccc4O)nnc2N)C3)n1` [Compound P-134, 2-(6-amino-5-(8-(2-(3-(dimethylamino)prop-1-yn-1-yl)pyrimidin-4-yl)-3,8-diazabicyclo[3.2.1]octan-3-yl)pyridazin-3-yl)phenol], in assay [1], the 50% degradation concentration (DC50) was less than 0.05 µM and the inhibition at 1 µM lay in the range of 30 to 70%. Further, in assay [2], the DC50 fell in the range of 0.05 to 0.5 µM and the “SMARCA2 % Degradation @ 1 μM” value was “++ (++=30-70%)”.

As to `Nc1nnc(-c2ccccc2O)cc1N1CCCN(c2ccnc(C#Cc3cnc4cnccn34)n2)CC1` [Compound P-135, 2-(6-amino-5-(4-(2-(imidazo[1,2-a]pyrazin-3-ylethynyl)pyrimidin-4-yl)-1,4-diazepan-1-yl)pyridazin-3-yl)phenol], in assay [1], the DC50 was 0.05 to 0.5 µM and the inhibition at 1 µM lay in the range of 30 to 70%. Moreover, in assay [2], the DC50 lay within 0.05 to 0.5 µM and the “SMARCA2 % Degradation @ 1 μM” value is listed as “++ (++=30-70%)”.

For the compound `Nc1nnc(-c2ccccc2O)cc1N1CCCN(c2ccnc(C#CCN3CCOCC3)n2)CC1` [Compound P-136, 2-(6-amino-5-(4-(2-(3-morpholinoprop-1-yn-1-yl)pyrimidin-4-yl)-1,4-diazepan-1-yl)pyridazin-3-yl)phenol], in assay [1], the DC50 lay in the range of 0.05 to 0.5 µM and the inhibition at 1 µM was in the range of 30 to 70%. In assay [2], the DC50 lay within 0.05 to 0.5 µM and the “SMARCA2 % Degradation @ 1 μM” value was “++ (++=30-70%)”.

With `Nc1nnc(-c2ccccc2O)cc1N1CCCN(c2ccnc(C#CCN3CCS(=O)(=O)CC3)n2)CC1` [Compound P-137, 4-(3-(4-(4-(3-amino-6-(2-hydroxyphenyl)pyridazin-4-yl)-1,4-diazepan-1-yl)pyrimidin-2-yl)prop-2-yn-1-yl)thiomorpholine 1,1-dioxide], in assay [1], the 50% degradation concentration (DC50) fell in the range of 0.5 to 5 µM and the inhibition at 1 µM lay in the range of 30 to 70%. In assay [2], the DC50 fell in the range of 0.5 to 5 µM and the “SMARCA2 % Degradation @ 1 μM” value was “++ (++=30-70%)”.

In assay [1], `Nc1nnc(-c2ccccc2O)cc1N1CCCN(c2ccnc(C#CCn3ccc(-c4ccccn4)n3)n2)CC1` [Compound P-138, 2-(6-amino-5-(4-(2-(3-(3-(pyridin-2-yl)-1H-pyrazol-1-yl)prop-1-yn-1-yl)pyrimidin-4-yl)-1,4-diazepan-1-yl)pyridazin-3-yl)phenol] came in with a DC50 of 0.05 to 0.5 µM and an inhibition at 1 µM of 30 to 70%. In addition, in assay [2], the DC50 fell in the range of 0.05 to 0.5 µM and the “SMARCA2 % Degradation @ 1 μM” value is “+++ (+++=>70%)”.

As for `CN(C)c1cc(N2CCCN(c3cc(-c4ccccc4O)nnc3N)CC2)nc(C#CCNC(=O)c2cc3ncccn3n2)n1` [Compound P-139, N-(3-(4-(4-(3-amino-6-(2-hydroxyphenyl)pyridazin-4-yl)-1,4-diazepan-1-yl)-6-(dimethylamino)pyrimidin-2-yl)prop-2-yn-1-yl)pyrazolo[1,5-a]pyrimidine-2-carboxamide], in assay [1], the DC50 fell in the range of 0.5 to 5 µM and the inhibition at 1 µM was greater than 70%. For the same compound, in assay [2], the half-maximal degradation concentration (DC50) is 0.05 to 0.5 µM and the “SMARCA2 % Degradation @ 1 μM” value is listed as “+++ (+++=>70%)”.

Regarding `Cc1c(C(=O)NCC#Cc2nc(N(C)C)cc(N3CCCN(c4cc(-c5ccccc5O)nnc4N)CC3)n2)nn(C)c1C` [Compound P-140, N-(3-(4-(4-(3-amino-6-(2-hydroxyphenyl)pyridazin-4-yl)-1,4-diazepan-1-yl)-6-(dimethylamino)pyrimidin-2-yl)prop-2-yn-1-yl)-1,4,5-trimethyl-1H-pyrazole-3-carboxamide], in assay [1], the DC50 fell in the range of 0.5 to 5 µM and the inhibition at 1 µM fell in the range of 30 to 70%. In assay [2], the DC50 fell in the range of 0.5 to 5 µM and the “SMARCA2 % Degradation @ 1 μM” value is “++ (++=30-70%)”.

In assay [1], `CNc1cc(N2CCCN(c3cc(-c4ccccc4O)nnc3N)CC2)nc(C#CCNC(=O)c2nn(C)c(C)c2C)n1` [Compound P-141, N-(3-(4-(4-(3-amino-6-(2-hydroxyphenyl)pyridazin-4-yl)-1,4-diazepan-1-yl)-6-(methylamino)pyrimidin-2-yl)prop-2-yn-1-yl)-1,4,5-trimethyl-1H-pyrazole-3-carboxamide] returned a DC50 of 0.5 to 5 µM and an inhibition at 1 µM of 30 to 70%. Moreover, in assay [2], the DC50 fell in the range of 0.5 to 5 µM and the “SMARCA2 % Degradation @ 1 μM” value is given as “??”.

In assay [1], `CC(C)(C)OC(=O)NC1CCN(CC#Cc2nccc(N3CCCN(c4cc(-c5ccccc5O)nnc4N)CC3)n2)CC1` [Compound P-142, tert-butyl (1-(3-(4-(4-(3-amino-6-(2-hydroxyphenyl)pyridazin-4-yl)-1,4-diazepan-1-yl)pyrimidin-2-yl)prop-2-yn-1-yl)piperidin-4-yl)carbamate] had a DC50 of 0.05 to 0.5 µM and an inhibition at 1 µM greater than 70%. For the same compound, in assay [2], the DC50 was in the range of 0.05 to 0.5 µM and the “SMARCA2 % Degradation @ 1 μM” value was “+++ (+++=>70%)”.
